Results as given in the supplement of paper PMC13380429.
± gives the standard deviation of the averaged measurements.

Columns and labels:
Settings in all cases: 72 h
Caco-2 [1] = test: cell viability relative to DMSO; higher = less toxic
HepG2 [2] = test: as above
U2OS [3] = test: as above
Vero E6 [4] = test: as above
Caco-2 [5] = test: relative viability EC50 (midpoint between 100% and the lowest measured viability); higher = less toxic
HepG2 [6] = test: as above
U2OS [7] = test: as above
Vero E6 [8] = test: as above
Caco-2 [9] = test: drug sensitivity score (DSS) for viability; higher = more toxic; extreme values may be limits of the assay
HepG2 [10] = test: as above
U2OS [11] = test: as above
Vero E6 [12] = test: as above
Calu-3 [13] = test: cell viability relative to DMSO; higher = less toxic
Calu-3 [14] = test: relative viability EC50 (midpoint between 100% and the lowest measured viability); higher = less toxic
Calu-3 [15] = test: drug sensitivity score (DSS) for viability; higher = more toxic; extreme values may be limits of the assay

Row | Structure (SMILES) | cell viability (Caco-2 [1]; 1 nM) [%] | cell viability (Caco-2 [1]; 10 nM) [%] | cell viability (Caco-2 [1]; 100 nM) [%] | cell viability (Caco-2 [1]; 1000 nM) [%] | cell viability (Caco-2 [1]; 10000 nM) [%] | cell viability (HepG2 [2]; 1 nM) [%] | cell viability (HepG2 [2]; 10 nM) [%] | cell viability (HepG2 [2]; 100 nM) [%] | cell viability (HepG2 [2]; 1000 nM) [%] | cell viability (HepG2 [2]; 10000 nM) [%] | cell viability (U2OS [3]; 1 nM) [%] | cell viability (U2OS [3]; 10 nM) [%] | cell viability (U2OS [3]; 100 nM) [%] | cell viability (U2OS [3]; 1000 nM) [%] | cell viability (U2OS [3]; 10000 nM) [%] | cell viability (Vero E6 [4]; 1 nM) [%] | cell viability (Vero E6 [4]; 10 nM) [%] | cell viability (Vero E6 [4]; 100 nM) [%] | cell viability (Vero E6 [4]; 1000 nM) [%] | cell viability (Vero E6 [4]; 10000 nM) [%] | relative viability EC50 (Caco-2 [5]) [µM] | relative viability EC50 (HepG2 [6]) [µM] | relative viability EC50 (U2OS [7]) [µM] | relative viability EC50 (Vero E6 [8]) [µM] | drug sensitivity score (Caco-2 [9]) | drug sensitivity score (HepG2 [10]) | drug sensitivity score (U2OS [11]) | drug sensitivity score (Vero E6 [12]) | cell viability (Calu-3 [13]; 1 nM) [%] | cell viability (Calu-3 [13]; 10 nM) [%] | cell viability (Calu-3 [13]; 100 nM) [%] | cell viability (Calu-3 [13]; 1000 nM) [%] | cell viability (Calu-3 [13]; 10000 nM) [%] | relative viability EC50 (Calu-3 [14]) [µM] | drug sensitivity score (Calu-3 [15])
1 | N#Cc1cccc(-c2nc(-c3cccnc3)no2)c1 [NS-9283] | 91.1 | 94.4 | 90.9 | 95 | 93.1 | 105 | 97.2 | 104 | 101 | 98.8 | 100 | 101 | 97.1 | 98.6 | 99.7 | 99.1 | 98.7 | 101 | 102 | 99.7 | > 10 | > 10 | > 10 | > 10 | 0 | 0 | 0 | 0 | – | – | – | – | – | – | –
2 | O=C(O)[C@H]1O[C@@H](Oc2cc3oc(-c4ccccc4)cc(=O)c3c(O)c2O)[C@H](O)[C@@H](O)[C@@H]1O [baicalin] | 109 | 99 | 95.7 | 93.3 | 97.5 | – | – | – | – | – | 105 | 93.2 | 104 | 101 | 91.8 | 99.7 | 103 | 102 | 103 | 102 | > 10 | – | > 10 | > 10 | 0 | – | 0 | 0 | 103 | 98.5 | 90.4 | 104 | 109 | > 10 | 0
3 | CN1CCc2cc3c(cc2[C@H]1[C@@H]1OC(=O)c2c1ccc1c2OCO1)OCO3 [bicuculline-(+)] | 93.2 | 86.7 | 96.4 | 96.5 | 100 | 91.1 | 98.3 | 88.8 | 97.8 | 106 | 97.4 | 96.1 | 97.6 | 99.5 | 99.8 | 95.2 | 98.6 | 94.7 | 102 | 104 | > 10 | > 10 | > 10 | > 10 | 0 | 0 | 0 | 0 | – | – | – | – | – | – | –
4 | CCOC(=O)NNc1ccc(N(CC)CC(C)O)nn1 (stereo unspecified) [cadralazine] | 110 | 97.4 | 100 | 102 | 102 | 95.6 | 103 | 97.9 | 96.6 | 106 | – | – | – | – | – | 105 | 100 | 94.8 | 100 | 95.2 | > 10 | > 10 | – | > 10 | 0 | 0 | – | 0 | 104 | 96.3 | 91.6 | 88.1 | 101 | > 10 | 0
5 | C[C@H](CCC(=O)O)[C@H]1CC[C@H]2[C@@H]3C(=O)C[C@@H]4CC(=O)CC[C@]4(C)[C@H]3CC(=O)[C@]12C [dehydrocholate-acid] | 95.5 ± 1.1 | 84 ± 19 | 96.2 ± 5.6 | 94.2 ± 6.7 | 93.2 ± 16 | 95.8 ± 7.3 | 102 ± 5.5 | 95.05 ± 0.21 | 103 ± 1.1 | 102 ± 7.3 | 101 ± 2.8 | 96.9 ± 2.8 | 98.3 ± 1.3 | 96 ± 2.3 | 97.6 ± 0.14 | 97.8 ± 0.57 | 102 ± 5.9 | 91.2 ± 6.6 | 94 ± 8 | 103 ± 7.6 | > 10 | > 10 | > 10 | > 10 | 0 | 0 | 0 | 0 | – | – | – | – | – | – | –
6 | O=C1Nc2ccccc2/C1=C1/Nc2ccccc2C1=O [indirubin] | 101 | 100 | 109 | 94.8 | 105 | 110 | 110 | 97.8 | 94 | 93.6 | – | – | – | – | – | 101 | 96.4 | 97.5 | 97.7 | 98.1 | > 10 | > 10 | – | > 10 | 0 | 0 | – | 0 | 116 | 104 | 109 | 93.1 | 119 | > 10 | 0
7 | O=C(O)[C@H](O)[C@@H](O)[C@H](O[C@@H]1O[C@H](CO)[C@H](O)[C@H](O)[C@H]1O)[C@H](O)CO [maltobionic-acid] | 89.3 | 101 | 85.6 | 97.9 | 115 | – | – | – | – | – | 93.6 | 103 | 97.8 | 102 | 101 | 94.3 | 89.8 | 94.4 | 88 | 101 | > 10 | – | > 10 | > 10 | 0 | – | 0 | 0 | 103 | 106 | 101 | 100 | 99.7 | > 10 | 0
8 | COC(=O)Nc1nc2cc(C(=O)c3cccs3)ccc2[nH]1 [nocodazole] | 102 | 105 | 73.6 | 54.1 | 40.6 | 114 | 103 | 85.6 | 40 | 40.2 | 105 | 110 | 70.4 | 46 | 24.3 | 105 | 108 | 64.8 | 30.7 | 26.8 | 0.174 | 0.159 | 0.252 | 0.103 | 11.8 | 13.3 | 13.6 | 17.9 | 103 | 105 | 73.8 | 65.4 | 54.9 | – | 10.6
9 | CCN1CCN(C(=O)N[C@@H](C(=O)N[C@@H]2C(=O)N3[C@@H]2SC(C)(C)[C@@H]3C(=O)O)c2ccccc2)C(=O)C1=O [piperacillin] | 93.8 | 91.1 | 97.8 | 103 | 106 | 114 | 113 | 104 | 103 | 95.5 | 97 | 94 | 93.9 | 102 | 103 | 97.2 | 99.1 | 97.7 | 96.5 | 110 | > 10 | > 10 | > 10 | > 10 | 0 | 0 | 0 | 0 | – | – | – | – | – | – | –
10 | Cc1ncc(CO)c(/C=N/NC(=O)c2ccncc2)c1O [pyridoxal-isonicotinoyl-hydrazone] | 102 | 108 | 93.3 | 100 | 100 | – | – | – | – | – | 95.8 | 97.4 | 95.8 | 93 | 102 | 100 | 94.2 | 92.5 | 97.4 | 109 | > 10 | – | > 10 | > 10 | 0 | – | 0 | 0 | 90.1 | 99.4 | 102 | 103 | 92 | > 10 | 0
11 | CCn1cc(C(=O)O)c(=O)c2ccc(-c3ccncc3)cc21 [rosoxacin] | 102 | 98 | 96.3 | 98.6 | 95.7 | 94.7 | 97.8 | 97.5 | 94.6 | 111 | 101 | 96.6 | 99.2 | 97.8 | 99.9 | 99.8 | 102 | 89.1 | 103 | 103 | > 10 | > 10 | > 10 | > 10 | 0 | 0 | 0 | 0 | – | – | – | – | – | – | –
12 | O=C(O)c1cc(O)c2c(c1)[C@H]([C@H]1c3cc(C(=O)O)cc(O)c3C(=O)c3c(O[C@@H]4O[C@H](CO)[C@@H](O)[C@H](O)[C@H]4O)cccc31)c1cccc(O[C@@H]3O[C@H](CO)[C@@H](O)[C@H](O)[C@H]3O)c1C2=O [sennoside-A] | 79.8 | 100 | 88 | 82.1 | 123 | 90.2 | 91.7 | 89.6 | 103 | 92.4 | 94 | 100 | 96.5 | 96.6 | 88.3 | 112 | 93.1 | 95.9 | 98.8 | 101 | > 10 | > 10 | > 10 | > 10 | 0 | 0 | 0 | 0 | 95.3 | 96.8 | 90.1 | 91 | 67.3 | – | 2.3
13 | S=C(NC1CCCCC1)N1CCC(c2cnc[nH]2)CC1 [thioperamide] | 98.7 | 99.4 | 92.7 | 103 | 95.4 | 108 | 97.3 | 104 | 100 | 92.7 | 100 | 96.2 | 98.7 | 93.1 | 96.4 | 103 | 103 | 96.5 | 94.3 | 95.9 | > 10 | > 10 | > 10 | > 10 | 0 | 0 | 0 | 0 | – | – | – | – | – | – | –
